The source of these data is PubChem BioAssay (NCI).

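Grown in 96-well plates, cells were treated for 48 hours with each compound at five concentrations. Insufficient inhibition: endpoint recorded as highest concentration tested. Abbreviation: GI50, concentration required for 50% inhibition of growth. TGI: total growth inhibition.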 A value given as a limit tells only on which side of the number the result lay.

Among the test systems are SF-539 CNS; SK-MEL-28 melanoma; CAKI-1 renal; SNB-75 CNS; HCT-15 colon; PC-3 prostate; HCC-2998 colon; OVCAR-3 ovarian; SNB-19 CNS; HOP-62 NSCLC.
What all share (test): NCI-60 cell line screen, 48 h

Turning to `CCCCCCCCCCCCCCCC1=NCCN1`, the GI50 in the experiment on SF-539 CNS is 1.89 µM; in the experiment on SK-MEL-28 melanoma it was 1.88 µM; in the experiment on CAKI-1 renal, 1.67 µM; with SNB-75 CNS, 1.58 µM; in the experiment with HCT-15 colon, 1.61 µM; with PC-3 prostate it was 2.03 µM. The figures for the GI50 in the experiment on HCC-2998 colon and with OVCAR-3 ovarian were 1.85 µM and 2.01 µM, respectively. Further, the TGI is 3.6 µM in the experiment on SF-539 CNS; 3.77 µM in the experiment on SK-MEL-28 melanoma; 3.58 µM in the experiment on CAKI-1 renal; 3.44 µM in the experiment with SNB-75 CNS; 3.24 µM in the experiment on HCT-15 colon; 4.24 µM in the experiment on PC-3 prostate. Besides, the TGI with HCC-2998 colon came to 3.42 µM; in the experiment with OVCAR-3 ovarian, 4.02 µM.
As to `COC(=O)c1ccc2c(c1)C(=O)c1c-2n(CCCCl)c(=O)c2cc([N+](=O)[O-])ccc12`, the GI50 in the experiment with SF-539 CNS is 83.6 µM; with SK-MEL-28 melanoma it was greater than 100 µM; with CAKI-1 renal, 65.6 µM; with SNB-75 CNS it was 61.7 µM; in the experiment with SNB-19 CNS, 56.6 µM; in the experiment with HCT-15 colon, greater than 100 µM. The GI50 with PC-3 prostate was greater than 100 µM; in the experiment on HOP-62 NSCLC it was 43.3 µM; in the experiment with HCC-2998 colon it was greater than 100 µM; in the experiment with OVCAR-3 ovarian it was 96.6 µM. In addition, the TGI with SF-539 CNS, in the experiment on SK-MEL-28 melanoma, with CAKI-1 renal, in the experiment with SNB-75 CNS, in the experiment with SNB-19 CNS and with HCT-15 colon was greater than 100 µM in each case. The TGI with PC-3 prostate, in the experiment with HOP-62 NSCLC, with HCC-2998 colon and in the experiment with OVCAR-3 ovarian was greater than 100 µM each time.
As to `CC1=C2CC(C)(C)/C=C\C(=O)/C(C)=C\C3=C[C@H](C)C[C@]3(O2)C1=O`, the TGI was 3.09 µM with SF-539 CNS; 1.74 µM in the experiment on SK-MEL-28 melanoma; 2.42 µM with CAKI-1 renal; 12.2 µM in the experiment with SNB-75 CNS; 37.2 µM in the experiment with SNB-19 CNS; 2.53 µM in the experiment with HCT-15 colon. For the same compound, the TGI in the experiment with PC-3 prostate worked out at 7.09 µM; in the experiment on HOP-62 NSCLC, 15.9 µM; with HCC-2998 colon, 10.2 µM; in the experiment with OVCAR-3 ovarian, 1.15 µM.
Take `COc1ccc(C#Cc2ccc(=O)oc2-c2cc(OC)c(OC)c(OC)c2)cc1O`: the GI50 is 6.27 µM with SF-539 CNS; 18.2 µM in the experiment on SK-MEL-28 melanoma; 7.6 µM in the experiment with CAKI-1 renal; 5.52 µM in the experiment with SNB-75 CNS; 18 µM in the experiment on SNB-19 CNS; 2.86 µM in the experiment with HCT-15 colon. Further, the GI50 with PC-3 prostate is 8.22 µM; with HOP-62 NSCLC, 5.12 µM; in the experiment on HCC-2998 colon it was 3.36 µM; in the experiment with OVCAR-3 ovarian, 1.81 µM. Also, the TGI with SF-539 CNS was 40.4 µM; in the experiment with SK-MEL-28 melanoma it was greater than 100 µM; in the experiment with CAKI-1 renal, greater than 100 µM; in the experiment on SNB-75 CNS, 27.8 µM; in the experiment with SNB-19 CNS, greater than 100 µM; with HCT-15 colon, greater than 100 µM. Moreover, the TGI was greater than 100 µM in the experiment with PC-3 prostate, greater than 64.6 µM with HOP-62 NSCLC, 44 µM with HCC-2998 colon and 28.5 µM in the experiment with OVCAR-3 ovarian.
On to `O=C(CC1(O)C(=O)N(Cc2ccccc2)c2ccc(Cl)cc21)c1ccc(C(=O)NCC2CCC3(CC2)OOC2(CCCCC2)OO3)cc1` (configuration not stated), for which the GI50 in the experiment with SF-539 CNS is 0.191 µM; in the experiment with SK-MEL-28 melanoma, 8.35 µM; with CAKI-1 renal, 0.418 µM; in the experiment with SNB-75 CNS, 1.35 µM; in the experiment on SNB-19 CNS it was 5.34 µM; in the experiment with HCT-15 colon, 0.573 µM. In addition, the GI50 in the experiment with PC-3 prostate was 1.33 µM; with HOP-62 NSCLC, 0.189 µM; in the experiment with HCC-2998 colon, 1.31 µM; in the experiment on OVCAR-3 ovarian, 0.197 µM. Further, the TGI with SF-539 CNS is 0.379 µM; with SK-MEL-28 melanoma, greater than 100 µM; in the experiment on CAKI-1 renal, 0.864 µM; with SNB-75 CNS it was 3.39 µM; with SNB-19 CNS it was greater than 100 µM; in the experiment with HCT-15 colon, 2.43 µM. Besides, the TGI in the experiment with PC-3 prostate was determined as 9.11 µM; in the experiment on HOP-62 NSCLC, 0.39 µM; with HCC-2998 colon it was 3.02 µM; with OVCAR-3 ovarian, 0.419 µM.
For `O=C1C(=C(C(F)(F)Cl)C(F)(F)Cl)C2CCC1C2` (configuration not stated), the TGI in the experiment on SF-539 CNS was greater than 6.2 µM; in the experiment with SK-MEL-28 melanoma, 3.96 µM; in the experiment on SNB-75 CNS, greater than 10 µM; in the experiment on SNB-19 CNS, greater than 10 µM; in the experiment with HCT-15 colon it was 3.97 µM; in the experiment on PC-3 prostate, 5.48 µM. In addition, the TGI was greater than 10 µM in the experiment on HOP-62 NSCLC, greater than 10 µM in the experiment on HCC-2998 colon and greater than 6.36 µM in the experiment on OVCAR-3 ovarian.
As for `O=C1CSC(=S)N1c1ccco1`, the TGI is greater than 100 µM with SF-539 CNS; greater than 100 µM in the experiment with SK-MEL-28 melanoma; greater than 100 µM in the experiment on CAKI-1 renal; greater than 100 µM with SNB-19 CNS; 50.9 µM with HCT-15 colon; greater than 100 µM in the experiment with PC-3 prostate. The TGI in the experiment with HOP-62 NSCLC and in the experiment on OVCAR-3 ovarian was greater than 100 µM each time.
Regarding `COc1ccc2c(c1)c(-c1nc(-c3c[nH]c4ncccc34)cs1)cn2CCCN1CCCCC1`, the GI50 in the experiment with SF-539 CNS is 1.63 µM; in the experiment with SK-MEL-28 melanoma, 1.72 µM; in the experiment with SNB-75 CNS, 1.19 µM; in the experiment with HCT-15 colon, 1.57 µM; in the experiment on PC-3 prostate, 1.7 µM; in the experiment with HOP-62 NSCLC it was 1.61 µM. The values for the GI50 in the experiment on HCC-2998 colon and in the experiment with OVCAR-3 ovarian were 1.78 µM and 1.63 µM, respectively. Moreover, the TGI with SF-539 CNS turned out to be 3.07 µM; in the experiment on SK-MEL-28 melanoma, 3.26 µM; with SNB-75 CNS, 3.09 µM; in the experiment with HCT-15 colon, 2.97 µM; in the experiment with PC-3 prostate, 3.29 µM; in the experiment on HOP-62 NSCLC, 3.2 µM. The TGI with HCC-2998 colon was found to be 3.42 µM; with OVCAR-3 ovarian it was 3.1 µM.
With `CSC(=NC#N)S/C=C/C(=O)c1ccccc1`, the GI50 in the experiment on SF-539 CNS was 22.6 µM; in the experiment on SK-MEL-28 melanoma, 58 µM; in the experiment with CAKI-1 renal, 16.6 µM; in the experiment with SNB-19 CNS it was greater than 100 µM; in the experiment with HCT-15 colon it was 34.8 µM; with PC-3 prostate it was 33.2 µM. The GI50 was 36 µM in the experiment with HOP-62 NSCLC, 59.4 µM in the experiment on HCC-2998 colon and 31.5 µM in the experiment on OVCAR-3 ovarian. For the same compound, the TGI in the experiment on SF-539 CNS was 49.4 µM; in the experiment on SK-MEL-28 melanoma it was greater than 100 µM; with CAKI-1 renal it was 37.2 µM; with SNB-19 CNS, greater than 100 µM; with HCT-15 colon it was greater than 100 µM; with PC-3 prostate, greater than 100 µM. Further, the TGI in the experiment with HOP-62 NSCLC, with HCC-2998 colon and with OVCAR-3 ovarian was greater than 100 µM each time.
